Data taken from patent US6831190B1, “Guanidinomethyl cyclohexane carboxylic acid ester derivatives” (Teikoku Chemical Industries Co., Ltd., priority 1994, dated 2004).
In brackets after ≈: the same amount, converted by molar mass. Like-named read-outs stand apart in the source and are kept apart here.

Columns and labels:
Type in all cases: cell-based
[1] = system: Helicobacter pylori ATCC 43629; assay: MIC, agar plating dilution (standard method of Japanese Chemotherapy Academy)
Protocol: (§1) 1. Minimum Inhibitory Concentration (MIC) was measured in accordance with the standard method of Japanese Chemotherapy Academy (Chemotherapy, 29: 76-79, 1981). Sensitivity was measured with an agar plating dilution using Brain-Heart Infusion agar (Difco Co.) which was added 0.1% of cyclodextrin. […] of the solutions of the compounds which were obtained in examples of the present invention was prepared by dissolving in dimethylsulfoxide. […] Each of 1 ml of those prepared solutions was dispensed in share, after sterilization, 9 ml of sensitivity measuring medium which is kept at 50° C. was added to each, and they were sufficiently mixed. The mixture was used as a plate for measuring sensitivity. Brain Heart Infusion agar medium (Difco Co.), which was added 0.1% of cyclodextrin, was used as bacteria growing medium, and was cultured under microair at 37° C. for three days, and the number of bacteria thereof was adjusted to about 106/ml. This was used as a bacterial solution for inoculation. The medium was painted in each square about 2 cm with nichromic line loop. The medium was cultured under microair for three days at 37° C.

[2] = system: Helicobacter pylori ATCC 43504; assay: as above
Protocol: as §1

[3] = system: Staphylococcus aureus No. 2 (MRSA); assay: MIC, standard method of Japanese Chemotherapy Academy; conditions: Strain 14: Staphylococcus aureus No. 2 (MRSA)
Protocol: (§2) 1. Minimum Inhibitory Concentration (MIC) was measured in accordance with the standard method of Japanese Chemotherapy Academy (Chemotherapy, 29: 76-79, 1981).
(§3) And MIC of the compounds of Example 3, 36, 8, 14, 17, 21, 41 and 45 were measured.

[4] = system: Bacillus subtilis ATCC 6633; assay: as above; conditions: for MIC: Strain 13: Bacillus subtilis ATCC 6633; for MIC against bacillus subcillus ATCC 6633: standard method of Japanese Chemotherapy Academy
Protocol: as §2, §3

[5] = system: Staphylococcus aureus 209PJC; assay: as above; conditions: Strain 11: Staphylococcus aureus 209PJC
Protocol: as §2, §3

[6] = system: Staphylococcus aureus ATCC 6538; assay: as above; conditions: Strain 12: Staphylococcus aureus ATCC 6538
Protocol: as §2, §3

[7] = system: Helicobacter pylori No. 4; assay: MIC, agar plating dilution, clinical segregation strain
Protocol: (§4) Minimum Inhibitory Concentration (MIC) was measured in accordance with the standard method of Japanese Chemotherapy Academy (Chemotherapy, 29: 76-79, 1981). Sensitivity was measured with an agar plating dilution using Brain-Heart Infusion agar (Difco Co.) which was added 0.1% of cyclodextrin. […] of the solutions of the compounds which were obtained in examples of the present invention was prepared by dissolving in dimethylsulfoxide. […] Each of 1 ml of those prepared solutions was dispensed in share, after sterilization, 9 ml of sensitivity measuring medium which is kept at 50° C. was added to each, and they were sufficiently mixed. The mixture was used as a plate for measuring sensitivity. Brain Heart Infusion agar medium (Difco Co.), which was added 0.1% of cyclodextrin, was used as bacteria growing medium, and was cultured under microair at 37° C. for three days, and the number of bacteria thereof was adjusted to about 106/ml. This was used as a bacterial solution for inoculation. The medium was painted in each square about 2 cm with nichromic line loop. The medium was cultured under microair for three days at 37° C. […] The each result is shown at Table 4.

[8] = system: Helicobacter pylori No. 20; assay: as above
Protocol: as §4

[9] = system: Helicobacter pylori No. 1; assay: as above
Protocol: as §4

[10] = system: Helicobacter pylori No. 3; assay: as above
Protocol: as §4

[11] = system: Helicobacter pylori No. 19; assay: as above
Protocol: as §4

[12] = system: Helicobacter pylori No. 28; assay: as above
Protocol: as §4

[13] = system: Helicobacter pylori No. 2; assay: as above
Protocol: as §4

[14] = system: Escherichia coli NIH JC-2; assay: MIC, standard method of Japanese Chemotherapy Academy; conditions: Objected Strain 3: Escherichia coli NIH JC-2
Protocol: as §2

[15] = Objected Strain 2: Helicobacter pylori ATCC 43629
[16] = Objected Strain 1: Helicobacter pylori ATCC 43504
[17] = Strain 7: Helicobacter pylori No. 4
[18] = Strain 4: Helicobacter pylori No. 1
[19] = Strain 6: Helicobacter pylori No. 3
[20] = Strain 5: Helicobacter pylori No. 2
[21] = Strain 9: Helicobacter pylori No. 20
[22] = Strain 8: Helicobacter pylori No. 19
[23] = Strain 10: Helicobacter pylori No. 28

MIC [1, 15] | MIC [2, 16] | MIC [3] | MIC [4] | MIC against bacillus subcillus ATCC 6633 [4] | MIC [5] | MIC [6] | MIC [14] | MIC [7, 17] | MIC [9, 18] | MIC [10, 19] | MIC [13, 20] | MIC [8, 21] | MIC [11, 22] | MIC [12, 23] | Structure (SMILES) | other results
– | – | – | – | – | – | – | – | – | – | – | – | – | – | – | CC1(C)S[C@@H]2[C@H](NC(=O)[C@H](N)c3ccc(O)cc3)C(=O)N2[C@H]1C(=O)O [Amoxicillin, amoxicillin, reference compound] | MIC ([1]; ATCC43629, Objected Strain 2: Helicobacter pylori ATCC 43629, read-out: MIC): 0.025 mg/L (≈ 0.0684 µM); MIC ([2]; ATCC43504, Objected Strain 1: Helicobacter pylori ATCC 43504, read-out: MIC): 0.05 mg/L (≈ 0.137 µM); MIC ([3]; read-out: MIC): 0.2 mg/L (≈ 0.547 µM); MIC ([4]; ATCC6633, read-out: MIC): 0.05 mg/L (≈ 0.137 µM); MIC ([5]; read-out: MIC): 0.1 mg/L (≈ 0.274 µM); MIC ([6]; ATCC6538, read-out: MIC): 0.05 mg/L (≈ 0.137 µM); MIC ([7]; Strain 7: Helicobacter pylori No. 4, read-out: MIC): 0.05 mg/L (≈ 0.137 µM); MIC ([8]; Strain 9: Helicobacter pylori No. 20, read-out: MIC): 0.025 mg/L (≈ 0.0684 µM); MIC ([9]; Strain 4: Helicobacter pylori No. 1, read-out: MIC): 0.1 mg/L (≈ 0.274 µM); MIC ([10]; Strain 6: Helicobacter pylori No. 3, read-out: MIC): 0.025 mg/L (≈ 0.0684 µM); MIC ([11]; Strain 8: Helicobacter pylori No. 19, read-out: MIC): 0.025 mg/L (≈ 0.0684 µM); MIC ([12]; Strain 10: Helicobacter pylori No. 28, read-out: MIC): 0.05 mg/L (≈ 0.137 µM); MIC ([13]; Strain 5: Helicobacter pylori No. 2, read-out: MIC): 0.1 mg/L (≈ 0.274 µM)
0.39 mg/L | 0.78 mg/L | 3.13 mg/L | 25 mg/L | > 25 mg/L | 3.13 mg/L | 6.25 mg/L | >25 mg/L | 0.39 mg/L | 0.20 mg/L | 0.10 mg/L | 0.39 mg/L | – | – | – | Cl.N=C(N)NC[C@H]1CC[C@H](C(=O)Oc2ccc(-c3ccc(C(=O)OCc4ccccc4)cc3)cc2)CC1 [Example 3, trans-4-guanidinomethyl cyclohexane carboxylic acid [4-(4-benzyloxycarbonylphenyl)phenylester].hydrochloride] | –
0.39 mg/L | 0.78 mg/L | 1.56 mg/L | 6.25 mg/L | – | 0.78 mg/L | 1.56 mg/L | >25 mg/L | 0.39 mg/L | 0.10 mg/L | 0.10 mg/L | 0.39 mg/L | 0.39 mg/L | 0.20 mg/L | 0.39 mg/L | Cl.N=C(N)NC[C@H]1CC[C@H](C(=O)Oc2ccc(-c3ccc(Cl)cc3)cc2)CC1 [Example 8, trans-4-guanidinomethyl cyclohexane carboxylic acid [4-(4-chlorophenyl)phenylester].hydrochloride] | –
0.39 mg/L | 0.78 mg/L | >25 mg/L | >25 mg/L | > 25 mg/L | >25 mg/L | >25 mg/L | >25 mg/L | 0.20 mg/L | 0.20 mg/L | 0.20 mg/L | 0.39 mg/L | – | – | – | CC(C)(C)c1ccc(COC(=O)c2ccc(-c3ccc(OC(=O)[C@H]4CC[C@H](CNC(=N)N)CC4)cc3)cc2)cc1.Cl [Example 17, trans-4-guanidinomethyl cyclohexane carboxylic acid [4-[4-(4-t-butylbenzyloxy carbonyl)phenyl]phenylester].hydrochloride] | –
0.78 mg/L | 0.39 mg/L | >25 mg/L | >25 mg/L | > 25 mg/L | 25 mg/L | >25 mg/L | >25 mg/L | 0.39 mg/L | 0.20 mg/L | 0.10 mg/L | 0.39 mg/L | – | – | – | Cl.N=C(N)NC[C@H]1CC[C@H](C(=O)Oc2ccc(-c3ccc(C(=O)OCc4ccc(C(F)(F)F)cc4)cc3)cc2)CC1 [Example 21, trans-4-guanidinomethyl cyclohexane carboxylic acid [4-[4-(4-trifuluoromethyl benzyloxycarbonyl)phenyl]phenylester].hydrochloride] | –
0.78 mg/L | 0.39 mg/L | – | – | > 25 mg/L | – | – | >25 mg/L | 0.20 mg/L | 0.20 mg/L | 0.10 mg/L | 0.39 mg/L | – | – | – | Cl.N=C(N)NC[C@H]1CC[C@H](C(=O)Oc2ccc(-c3ccc(C(=O)OCCc4ccccc4)cc3)cc2)CC1 [Example 26, trans-4-guanidinomethyl cyclohexane carboxylic acid[4-[4-(2-phenylethyloxycarbonyl)phenyl]phenylester].hydrochloride] | –
6.25 mg/L | 6.25 mg/L | 6.25 mg/L | 25 mg/L | – | 6.25 mg/L | – | >25 mg/L | – | – | – | – | – | – | – | CCOC(=O)c1ccc(Oc2ccc(OC(=O)[C@H]3CC[C@H](CNC(=N)N)CC3)cc2)cc1.Cl [Example 36, trans-4-guanidinomethyl cyclohexane carboxylic acid[4(4-ethoxycarbonylphenyloxy)phenylester].hydrochloride] | –
0.39 mg/L | 0.20 mg/L | – | – | – | – | – | >25 mg/L | 0.78 mg/L | 0.20 mg/L | 0.20 mg/L | 0.20 mg/L | 0.39 mg/L | 0.10 mg/L | 0.39 mg/L | Cc1ccccc1COC(=O)c1ccc(-c2ccc(OC(=O)[C@H]3CC[C@H](CNC(=N)N)CC3)cc2)cc1.Cl [Example 43, trans-4-guanidinomethyl cyclohexane carboxylic acid[4-[4-(2-methylbenzyloxycarbonyl)phenyl]phenylester].hydrochloride] | –
0.20 mg/L | 0.20 mg/L | – | – | – | – | – | >25 mg/L | 0.78 mg/L | 0.39 mg/L | 0.20 mg/L | 0.39 mg/L | 0.20 mg/L | 0.20 mg/L | 0.39 mg/L | Cc1cccc(COC(=O)c2ccc(-c3ccc(OC(=O)[C@H]4CC[C@H](CNC(=N)N)CC4)cc3)cc2)c1.Cl [Example 44, trans-4-guanidinomethyl cyclohexane carboxylic acid[4-[4-(3-methylbenzyloxycarbonyl)phenyl]phenylester].hydrochloride] | –
0.78 mg/L | 0.78 mg/L | – | – | – | – | – | >25 mg/L | 3.13 mg/L | 0.39 mg/L | 0.20 mg/L | 0.39 mg/L | 0.20 mg/L | 0.39 mg/L | 0.39 mg/L | Cc1ccc(CCOC(=O)c2ccc(-c3ccc(OC(=O)[C@H]4CC[C@H](CNC(=N)N)CC4)cc3)cc2)cc1.Cl [Example 46, trans-4-guanidinomethyl cyclohexane carboxylic acid[4-[4-[2-(4-methylphenyl)ethyloxycarbonyl)phenyl]phenylester].hydrochloride] | –
